Laboratory results: ChEMBL document CHEMBL1201862, “PubChem BioAssay data set” (2004)
Active and inactive are the calls of the source.

What was measured:
[1] = molecular target: T1, Serine/threonine-protein phosphatase (Candida dubliniensis (strain CD36 / CBS 7987 / NCPF 3949 / NRRLY-17841) (Yeast), UniProt B9W6M3); test: Fluorescence Cell-Based Secondary Assay to Identify Inhibitors of Calcineurin. [Related pubchem assays (depositor defined):AID1979, AID2007]; type: functional
T1 sequence (B9W6M3 whole entry): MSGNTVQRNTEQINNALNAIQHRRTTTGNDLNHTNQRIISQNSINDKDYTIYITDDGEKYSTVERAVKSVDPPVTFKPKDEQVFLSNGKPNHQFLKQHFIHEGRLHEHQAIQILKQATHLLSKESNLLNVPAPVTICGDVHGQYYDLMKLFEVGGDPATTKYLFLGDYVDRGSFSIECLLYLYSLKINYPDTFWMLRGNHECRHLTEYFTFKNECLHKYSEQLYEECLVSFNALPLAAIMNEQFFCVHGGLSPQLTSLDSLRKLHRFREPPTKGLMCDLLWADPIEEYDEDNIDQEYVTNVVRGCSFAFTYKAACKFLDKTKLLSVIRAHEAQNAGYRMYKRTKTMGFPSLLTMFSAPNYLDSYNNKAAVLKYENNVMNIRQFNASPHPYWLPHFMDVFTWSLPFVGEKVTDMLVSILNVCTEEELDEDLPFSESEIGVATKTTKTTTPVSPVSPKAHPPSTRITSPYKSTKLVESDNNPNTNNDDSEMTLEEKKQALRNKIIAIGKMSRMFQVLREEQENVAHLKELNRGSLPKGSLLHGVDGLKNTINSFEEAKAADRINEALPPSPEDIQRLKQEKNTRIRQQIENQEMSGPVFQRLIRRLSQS

[2] = microbe, parasite or virus in culture; type: functional; conditions: Mycobacterium tuberculosis
[3] = system: Streptococcus; test: Group A Streptococcus viability loss, dose response, counter-screen for streptokinase expression inhibitor project, luminescence, BacTiterGlo (AID 1915); type: functional, organism-based;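 further: potency for reduction of bacterial viability or growth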
[4] = inhibitors of firefly luciferase expression or activity, dose response, H4 neuroglioma cells, luminescence (AID 1990); type: functional, cell-based
[5] = molecular target: T1, Serine/threonine-protein phosphatase; test: calcineurin pathway inhibitors in yeast reporter, dose response, S. cerevisiae, CDRE-lacZ, luminescence, secondary (AID 2388); type: functional, cell-based;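 further: yeast reporter cells carrying a calcineurin-responsive lacZ construct stimulated with calcium chloride; luminescent beta-galactosidase reporter signal in whole cells rather than isolated phosphatase activity; potency for inhibition where a drop in reporter signal means calcineurin blockade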
[6] = molecular target: ATP-dependent molecular chaperone HSP82 (Candida albicans (strain WO-1) (Yeast), UniProt C4YTQ8); test: loss of DOC-induced GRE-beta-galactosidase reporter signal, dose response, Hsp90 inhibitor project, S. cerevisiae, luminescence (AID 2400); type: functional, cell-based;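 further: beta-galactosidase luminescence from glucocorticoid response element reporter as proxy for Hsp90 function; inhibitor potency where signal loss means Hsp90 inhibition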
[7] = Luminescence Cell-Based Dose Response HTS to Identify Inhibitors of 5'UTR Stem-Loop Driven Prion Protein mRNA Translation in H4 Neuroglioblastoma Cells. [Related pubchem assays: 1827 (Project Summary), 1813 (Primary HTS)]; type: functional
[8] = system: Streptococcus sp. 'group A'; test: growth inhibition of control SK(-) GAS strain, dose response, counter-screen for streptokinase expression inhibitor project, luminescence, kanamycin, BacTiterGlo, confirmation (AID 1900); type: functional, organism-based
[9] = NIH-3T3 fibroblast cytotoxicity, dose response, cytotoxicity control, cell-based, fluorescence, Alamar Blue, secondary assay (AID 2327); type: functional;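 further: NIH-3T3 mouse fibroblasts cultured with fluconazole at 8 µg/mL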
[10] = inhibitors of SNCA 5'UTR-driven reporter translation, confirmation, H4 neuroglioma cells, luminescence (AID 1988); type: functional, cell-based
[11] = system: INS1; test: beta cell apoptosis inhibitors, cytokine rescue, dose response, luminescence, retest (AID 449756); type: functional, cell-based; conditions: Rattus norvegicus;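 further: cell death triggered by IL-1 beta plus TNF-alpha plus IFN-gamma mixture; protective hits raise ATP signal compared with cytokine alone wells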
[12] = C. albicans growth with fluconazole, confirmation, fluorescence, retest (AID 2467); type: functional, cell-based
[13] = system: HEK293; test: cells; conditions: Homo sapiens
[14] = system: HEK293; test: cells; conditions: Homo sapiens; remark: listed apart in the source
[15] = ZM109 Env clade C HIV-1 fusion inhibitors, dose response, HeLa effector, CEM target cells, luciferase, cherry-pick (AID 652058); type: functional, cell-based
[16] = molecular target: Luciferin 4-monooxygenase (Photinus pyralis, UniProt P08659); test: Counter Screen for Luciferase-based Assay Positives. [Related pubchem assays: 620, 618, 411 ]
[17] = cytotoxicity in HEK-293T NF-kB-Luc cells, dose response, cytotoxicity control for B/T-cell NF-kB inhibitor project, cell-based, uHTS hits (AID 489019); type: functional;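 further: IC50 reflects cytotoxicity as loss of cell viability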
[18] = system: Jurkat; test: antigen receptor-induced NF-kB inhibitors, dose response, Jurkat, luciferase reporter, luminescence, B- and T-cell (AID 489004); type: functional, cell-based; conditions: Homo sapiens;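 further: NF-kB luciferase reporter Jurkat cells stimulated with PMA plus ionomycin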
[19] = molecular target: T2, Heat shock factor protein 1 (Mus musculus, UniProt P38532); test: inhibition of MG132-induced HSE-luciferase signal, confirmation, cell-based, NIH3T3, luminescence, dose retest (AID 2382); type: functional;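 further: NIH3T3 fibroblasts with HSF1-driven luciferase reporter stressed by proteasome inhibitor MG132; luminescence from HSF1-driven luciferase expression after 8 hours of MG132 stress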
T2 sequence (P38532 whole entry): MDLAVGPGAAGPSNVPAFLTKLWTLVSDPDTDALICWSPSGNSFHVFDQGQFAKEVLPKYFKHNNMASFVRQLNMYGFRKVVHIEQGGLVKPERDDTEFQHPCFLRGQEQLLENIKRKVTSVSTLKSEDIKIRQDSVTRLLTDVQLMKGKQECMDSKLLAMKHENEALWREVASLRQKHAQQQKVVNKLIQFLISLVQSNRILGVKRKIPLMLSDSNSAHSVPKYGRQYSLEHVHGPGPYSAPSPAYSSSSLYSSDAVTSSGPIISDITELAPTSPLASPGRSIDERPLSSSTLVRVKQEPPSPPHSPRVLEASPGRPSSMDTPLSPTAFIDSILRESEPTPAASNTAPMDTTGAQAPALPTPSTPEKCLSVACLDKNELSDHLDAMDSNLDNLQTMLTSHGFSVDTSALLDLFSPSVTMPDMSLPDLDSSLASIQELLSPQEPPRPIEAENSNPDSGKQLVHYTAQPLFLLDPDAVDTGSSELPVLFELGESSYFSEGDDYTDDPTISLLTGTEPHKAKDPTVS

[20] = system: HT-1080; test: cytotoxicity in HT1080 fibrosarcoma cells, cell-based, fluorescence readout (AID 620); type: functional; conditions: Homo sapiens
[21] = inhibitors of HIV Env-driven cell fusion, dose response, cherry-pick (AID 652057); type: functional, cell-based
[22] = inhibitors of SNCA 5'UTR-driven translation, confirmation, luminescence, H4 neuroglioblastoma cells, dose confirmation (AID 2454); type: functional, cell-based;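 further: H4 neuroglioblastoma cells carrying an alpha-synuclein 5'UTR luciferase reporter; potency for inhibition of the luciferase signal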
[23] = cells; type: functional, cell-based
[24] = off-target signal loss in HeLa-CEM21 co-culture – HeLa F-luc CTL cells, cherry-picked, counter-screen for HIV-1 Env fusion inhibitor project, dose response (AID 652040); type: functional, cell-based;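 further: potency for signal decrease marking cytotoxic or nonspecific inhibition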
[25] = luciferase reporter signal reduction – luminescence, H4-C neuroglioblastoma cells, dose response (AID 2458); type: functional, cell-based;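 further: H4 neuroglioblastoma cells stably carrying a luciferase reporter gene fusion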
[26] = inhibitors of clade B AD8 Env fusion, dose response, cell-based, cherry-pick (AID 652062); type: functional;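 further: luciferase signal from cell-cell fusion driven by HIV-1 clade B AD8 Env; potency is for inhibitors of fusion seen as a drop in luminescence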
[27] = molecular target: T3, Microphthalmia-associated transcription factor (Homo sapiens, UniProt O75030); test: TRPM1 promoter luciferase signal decrease, dose response, MITF inhibitor project, cell-based, SK-MEL-5, cherry-picked, set 3 (AID 493073); type: functional
T3 sequence (O75030 whole entry): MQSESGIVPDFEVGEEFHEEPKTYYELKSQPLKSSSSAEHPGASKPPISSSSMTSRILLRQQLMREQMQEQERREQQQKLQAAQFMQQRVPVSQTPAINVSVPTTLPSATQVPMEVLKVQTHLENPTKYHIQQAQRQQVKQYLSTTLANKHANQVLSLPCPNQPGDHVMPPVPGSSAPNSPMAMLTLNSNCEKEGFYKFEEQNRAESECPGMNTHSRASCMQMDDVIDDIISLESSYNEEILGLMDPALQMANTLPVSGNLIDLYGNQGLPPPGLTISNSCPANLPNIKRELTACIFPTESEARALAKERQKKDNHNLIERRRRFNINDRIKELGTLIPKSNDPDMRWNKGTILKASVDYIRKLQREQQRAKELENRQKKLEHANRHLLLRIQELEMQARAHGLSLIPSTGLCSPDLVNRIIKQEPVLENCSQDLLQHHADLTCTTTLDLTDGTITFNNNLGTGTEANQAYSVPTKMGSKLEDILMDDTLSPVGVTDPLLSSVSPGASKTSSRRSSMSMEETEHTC

[28] = molecular target: T4, COUP transcription factor 2 (Homo sapiens, UniProt P24468); test: Luminescence-based cell-based high throughput dose response assay to identify inhibitors of COUP-TFII (NR2F2).; type: functional;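 further: HEK293 cells transiently cotransfected with COUP-TFII expression vector and reporter; luciferase reporter luminescence driven by COUP-TFII from the pX2-168 reporter plasmid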
T4 sequence (P24468 whole entry): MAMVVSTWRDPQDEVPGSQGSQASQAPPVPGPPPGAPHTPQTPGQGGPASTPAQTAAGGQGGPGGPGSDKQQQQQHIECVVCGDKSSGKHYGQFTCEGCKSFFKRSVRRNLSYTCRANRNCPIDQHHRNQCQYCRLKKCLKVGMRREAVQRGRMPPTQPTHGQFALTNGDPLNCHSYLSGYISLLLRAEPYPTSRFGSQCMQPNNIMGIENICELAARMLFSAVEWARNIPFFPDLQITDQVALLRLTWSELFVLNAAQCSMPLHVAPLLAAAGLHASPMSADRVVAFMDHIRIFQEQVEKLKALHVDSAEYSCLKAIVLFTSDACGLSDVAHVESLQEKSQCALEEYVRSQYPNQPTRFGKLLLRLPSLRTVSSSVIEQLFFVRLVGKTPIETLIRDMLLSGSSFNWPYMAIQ

[29] = control 3'UTR Renilla luciferase suppression, dose response, counter-screen for Shn3 inhibitor project, cell-based, Clone20-Shn3RL, cherry-picked (AID 624133); type: functional
[30] = Shn3 3'UTR reporter inhibitors, dose response, cell-based, Clone20 osteoblasts, firefly luciferase, cherry-picked (AID 624132); type: functional;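 further: firefly luciferase luminescence from reporter carrying the Shn3 3'UTR in osteoblasts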
[31] = molecular target: Protein Wnt-3a (Mus musculus, UniProt P27467); test: Wnt3a-driven reporter signaling inhibition, dose response, selectivity assay for Gli-SUFU antagonist project, Wnt-LIGHT cells, luminescence (AID 651570); type: functional; conditions: read-out: IC50_Mean;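 further: Wnt-LIGHT reporter cells stimulated with conditioned medium from Wnt3a-producing cells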
Chain of Protein Wnt-3a (P27467 whole entry): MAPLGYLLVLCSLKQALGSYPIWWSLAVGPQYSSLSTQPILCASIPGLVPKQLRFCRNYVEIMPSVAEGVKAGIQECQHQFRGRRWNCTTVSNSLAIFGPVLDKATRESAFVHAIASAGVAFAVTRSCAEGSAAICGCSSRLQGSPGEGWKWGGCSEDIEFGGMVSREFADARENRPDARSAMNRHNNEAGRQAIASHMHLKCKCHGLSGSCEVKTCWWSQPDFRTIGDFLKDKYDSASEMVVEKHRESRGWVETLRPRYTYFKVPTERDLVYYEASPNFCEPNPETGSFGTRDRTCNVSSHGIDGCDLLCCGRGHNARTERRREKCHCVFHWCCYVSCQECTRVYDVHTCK

Chain of ATP-dependent molecular chaperone HSP82 (C4YTQ8 whole entry): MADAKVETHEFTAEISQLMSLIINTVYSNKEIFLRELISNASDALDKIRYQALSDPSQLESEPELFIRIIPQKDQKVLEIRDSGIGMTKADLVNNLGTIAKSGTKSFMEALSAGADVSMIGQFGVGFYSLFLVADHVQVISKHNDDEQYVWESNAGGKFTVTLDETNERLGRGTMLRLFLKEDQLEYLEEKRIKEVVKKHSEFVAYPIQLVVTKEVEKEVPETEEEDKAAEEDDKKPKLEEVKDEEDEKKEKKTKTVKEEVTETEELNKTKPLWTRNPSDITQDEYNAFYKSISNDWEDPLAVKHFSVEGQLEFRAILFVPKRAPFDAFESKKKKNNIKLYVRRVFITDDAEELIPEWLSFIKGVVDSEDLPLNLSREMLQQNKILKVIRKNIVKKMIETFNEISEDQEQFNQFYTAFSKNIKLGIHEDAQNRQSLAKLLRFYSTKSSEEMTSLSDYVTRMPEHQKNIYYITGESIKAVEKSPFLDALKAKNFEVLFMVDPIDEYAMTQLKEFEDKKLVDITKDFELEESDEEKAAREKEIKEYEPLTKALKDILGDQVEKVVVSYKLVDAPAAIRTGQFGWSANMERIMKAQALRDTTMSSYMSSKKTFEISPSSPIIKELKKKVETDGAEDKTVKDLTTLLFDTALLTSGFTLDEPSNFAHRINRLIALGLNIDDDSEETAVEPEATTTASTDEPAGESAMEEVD
Chain of Luciferin 4-monooxygenase (P08659 whole entry): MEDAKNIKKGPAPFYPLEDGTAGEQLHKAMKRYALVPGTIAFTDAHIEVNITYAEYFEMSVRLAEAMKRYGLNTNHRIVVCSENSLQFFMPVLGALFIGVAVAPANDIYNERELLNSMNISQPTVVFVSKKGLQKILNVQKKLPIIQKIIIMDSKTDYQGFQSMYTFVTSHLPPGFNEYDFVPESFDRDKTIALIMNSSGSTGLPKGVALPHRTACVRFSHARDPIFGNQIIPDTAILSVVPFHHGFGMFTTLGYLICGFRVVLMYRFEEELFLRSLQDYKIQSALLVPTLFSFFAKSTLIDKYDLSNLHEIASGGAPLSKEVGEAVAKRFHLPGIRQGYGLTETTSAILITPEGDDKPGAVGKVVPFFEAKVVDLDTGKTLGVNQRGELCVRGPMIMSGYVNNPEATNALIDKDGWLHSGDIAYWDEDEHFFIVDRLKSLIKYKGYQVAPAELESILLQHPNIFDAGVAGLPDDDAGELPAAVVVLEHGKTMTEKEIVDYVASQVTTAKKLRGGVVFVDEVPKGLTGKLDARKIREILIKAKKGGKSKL

CC(C)COCc1ccc(O)c2ncccc12
active: CC50 [2] 10200 nM | EC50 [3] 5430 nM | EC50 [4] 12100 nM | EC50 [7] 10900 nM | EC50 [8] 1670 nM | EC50 [9] 31800 nM | EC50 [10] 9380 nM | AC50 [11] 2350 nM | EC50 [12] 294 nM
inactive: EC50 [1] > 285000 nM | EC50 [5] > 180000 nM | EC50 [6] > 150000 nM

Cc1cc(NC(=O)CSc2nc(C(C)C)nc3sc(C)c(C)c23)no1
inactive: EC50 [13] > 59700 nM | EC50 [14] > 59700 nM

CC(C)(C)c1ccc(C(=O)Nc2ccc(CC(=O)O)cc2)o1
> 50000 nM (not active): EC50 [20]
inactive: IC50 [17] > 80000 nM
active: AC50 [15] < 260 nM | EC50 [16] 570 nM | IC50 [18] < 160 nM | EC50 [19] < 160 nM | AC50 [21] 392 nM | EC50 [4] < 100 nM | EC50 [22] 113 nM | EC50 [23] 344 nM | AC50 [24] 558 nM | EC50 [25] 106 nM | AC50 [26] < 260 nM | AC50 [27] 329 nM | EC50 [10] < 100 nM

CCOC(=O)C1CCCN(S(=O)(=O)c2ccc(S(=O)(=O)N(CC)CC)cc2)C1 (stereo unspecified)
active: IC50 [28] 4750 nM | AC50 [29] 801 nM | AC50 [30] 512 nM | IC50 [31] 236 nM | AC50 [11] 2600 nM
inactive: IC50 [17] > 80000 nM | IC50 [18] > 80000 nM
